This is an account of results in patent publication US20040082018A1, “Methods for using osteocalcin” (Athersys, Inc., priority 2002, published 2004).

Usually EC50 stands for the midpoint of the concentration-response curve. The low end stands for higher potency in that assay, the high end for lower potency in that assay.

Type in all cases: cell-based
One test addresses T1, CaR2 (Homo sapiens, UniProt Q5T6X5).
T1 construct: expressed in transfected cells
T1 sequence (Q5T6X5 19-926): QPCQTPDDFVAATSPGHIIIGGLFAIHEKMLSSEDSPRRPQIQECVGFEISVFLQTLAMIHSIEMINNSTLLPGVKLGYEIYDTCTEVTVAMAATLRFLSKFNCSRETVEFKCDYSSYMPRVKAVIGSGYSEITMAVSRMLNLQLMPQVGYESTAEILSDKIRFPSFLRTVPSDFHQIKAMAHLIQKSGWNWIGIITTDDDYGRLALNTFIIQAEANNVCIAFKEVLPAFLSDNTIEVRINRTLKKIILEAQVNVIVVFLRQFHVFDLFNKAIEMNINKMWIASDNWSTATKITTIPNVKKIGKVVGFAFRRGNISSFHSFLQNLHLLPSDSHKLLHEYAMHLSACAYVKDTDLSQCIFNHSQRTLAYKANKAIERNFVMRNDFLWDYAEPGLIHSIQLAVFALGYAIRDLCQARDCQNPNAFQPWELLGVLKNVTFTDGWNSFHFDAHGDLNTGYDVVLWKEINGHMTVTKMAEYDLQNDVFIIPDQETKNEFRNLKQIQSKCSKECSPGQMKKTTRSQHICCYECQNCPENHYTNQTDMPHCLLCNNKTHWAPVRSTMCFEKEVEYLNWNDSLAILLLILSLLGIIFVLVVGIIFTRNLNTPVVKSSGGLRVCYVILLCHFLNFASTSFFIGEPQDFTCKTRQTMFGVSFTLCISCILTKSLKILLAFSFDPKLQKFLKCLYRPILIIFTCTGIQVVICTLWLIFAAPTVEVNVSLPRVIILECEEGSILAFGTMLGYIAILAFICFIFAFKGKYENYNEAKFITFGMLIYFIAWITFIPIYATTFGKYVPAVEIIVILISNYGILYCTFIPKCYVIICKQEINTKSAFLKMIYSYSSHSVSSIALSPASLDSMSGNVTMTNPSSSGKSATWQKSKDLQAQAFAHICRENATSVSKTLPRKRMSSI
Description: FLIPR assay of intracellular Ca^++ in HEK293 clone HEK-167B12-2.1 stably expressing CaR2. Conditions: for FLIPR response (change of intracellular Ca^++ levels): initial ligand testing in the transfected cells; for effect on OC/Ca^++ activation of CaR2: OC and Ca^2+ pre-incubated with / in the presence of lead ion. The procedure: To facilitate pharmacological experimentation, CaR2 cDNA was cloned into the mammalian expression vector pcDNA 3.1 (+) Neo with or without a COOH-terminal FLAG epitope. The transgene was introduced into the HEK293 cell line and stable transfectants were identified. These clones were analyzed for CaR2 expression by qPCR and Western blotting to identify those clones that were suitable for ligand identification. The clone HEK-167B12-2.1 was chosen for further experimentation.
Based on the homology to the characterized goldfish odorant receptor 5.24, initial studies investigated the ability of 18 naturally occurring amino acids to trigger changes of intracellular Ca^++ levels in the transfected cells, as measured with a fluorescent imaging plate reader (FLIPR).
(§1) Intracellular Ca^++ was measured using a fluorometric imaging plate reader (FLIPR) [Molecular Devices]. Cells were seeded at a density of 1×10^5/well (96-well plate) or 1×10^4/well (384-well plate) in collagen coated plates and incubated overnight at 36.9° C. with 5% CO2. Medium was aspirated from the plates and replaced with equal volumes of a no wash calcium dye (Molecular Devices) and modified Hank's buffered saline solution [Ca^2+-free, Mg^2+-free] (140 mM NaCl, 5.4 mM KCl, 0.64 mM KH2PO4, 3 mM NaHCO3, 5.5 mM C6H12O6, 20 mM HEPES, 2.5 mM Caprylic acid (or 2.5 mM probenecid)). The plates were incubated for 1 hour at 36.9° C. with 5% CO2. FLIPR was used to measure changes in intracellular calcium as relative fluorescence upon activation by ligand.

The next test addresses T2, CaR (Homo sapiens, UniProt P41180).
T2 construct: expressed in transfected cells; host or cells: HEK 293
T2 sequence (P41180 20-1078): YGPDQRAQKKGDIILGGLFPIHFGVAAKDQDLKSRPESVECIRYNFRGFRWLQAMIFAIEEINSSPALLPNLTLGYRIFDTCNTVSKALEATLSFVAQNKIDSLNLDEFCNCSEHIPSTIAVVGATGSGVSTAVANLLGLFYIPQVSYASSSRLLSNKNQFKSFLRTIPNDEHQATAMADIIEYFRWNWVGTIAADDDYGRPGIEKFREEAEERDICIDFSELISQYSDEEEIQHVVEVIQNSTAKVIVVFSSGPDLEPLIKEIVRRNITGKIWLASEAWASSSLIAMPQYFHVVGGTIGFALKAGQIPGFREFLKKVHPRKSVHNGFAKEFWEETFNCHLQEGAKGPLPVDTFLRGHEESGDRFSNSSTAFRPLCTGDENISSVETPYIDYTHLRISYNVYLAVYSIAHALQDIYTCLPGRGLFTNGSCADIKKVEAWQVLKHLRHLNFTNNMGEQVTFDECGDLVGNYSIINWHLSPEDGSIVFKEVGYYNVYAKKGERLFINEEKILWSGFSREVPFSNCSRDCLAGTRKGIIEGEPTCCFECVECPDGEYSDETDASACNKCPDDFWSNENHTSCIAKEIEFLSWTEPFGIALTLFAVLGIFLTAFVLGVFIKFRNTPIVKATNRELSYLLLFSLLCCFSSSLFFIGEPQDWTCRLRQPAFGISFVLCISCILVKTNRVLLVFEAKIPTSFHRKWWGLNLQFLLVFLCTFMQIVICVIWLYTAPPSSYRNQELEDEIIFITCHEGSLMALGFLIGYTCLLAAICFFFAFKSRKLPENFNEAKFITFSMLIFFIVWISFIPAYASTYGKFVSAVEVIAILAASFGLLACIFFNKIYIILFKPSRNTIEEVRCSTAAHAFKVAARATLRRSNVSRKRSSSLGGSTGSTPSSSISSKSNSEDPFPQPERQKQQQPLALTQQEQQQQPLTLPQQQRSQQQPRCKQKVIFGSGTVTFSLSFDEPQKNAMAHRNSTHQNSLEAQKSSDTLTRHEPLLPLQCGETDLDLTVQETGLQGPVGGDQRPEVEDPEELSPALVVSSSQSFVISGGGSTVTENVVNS
Description: Ca^++ response of HEK 293 cells that express the previously characterized CaR. The procedure: as §1
(§2) Also, the apical side of cells lining tubules in Henle's loop in kidney and in epithelial cells lining prostate ducts are microenvironments where CaR2 would encounter higher than standard extracellular Ca^++.

The test system of a further test is parental HEK293 cells. Briefly: FLIPR assay of intracellular Ca^++ in parental HEK293 cells that do not express CaR2. The procedure:
as §1, §2

No end group written: not given here.

Consider `[Ca+2]` [Ca^++, calcium], for which the “activation of CaR2” value on CaR2 (10 mM Ca^++) is on record as “modest activation”; at CaR2 (40 mM Ca^++), “robustly activated”. Also, the EC50 was 85 mM on CaR2 (Ca^++ as activating ligand, clone expressing CaR2) and 4.1 mM at CaR (transfected HEK 293 cells). The “calcium level causing a marked increase in fluorescence signal, hence intracellular Ca^++” value at CaR2 (clone expressing CaR2) was more than 20 mM. Also, the “FLIPR response (change of intracellular Ca^++ levels)” value at CaR2 is “failed to elicit a positive FLIPR response”. Besides, the “increase in fluorescence signal by high calcium levels” value in the test with parental HEK293 cells (parental cell line, >20 mM calcium) is “not observed”.

For the compound `NCCCC(=O)O` [GABA], at CaR2, the “FLIPR response (change of intracellular Ca^++ levels)” value was “failed to elicit a positive FLIPR response”.

As to `CN[C@H](CC(=O)O)C(=O)O` [NMDA], on CaR2, the “FLIPR response (change of intracellular Ca^++ levels)” value was “failed to elicit a positive FLIPR response”.

Turning to `[Pb+2]` [Pb^2+], the “effect on OC/Ca^++ activation of CaR2” value at CaR2 is recorded as “reversed”; at CaR2 (listed as Pb^++), “blocked”.

For “osteocalcin (YLYQWLGAPVPYPDPLEPRREVCELNPDCDELADHIGFQEAYRRFYGPV; ends and bridges not checked; cysteine pairing not given here; UniProt P02818 52-100, looked up)”, the “OC activation of CaR2” value in the test with CaR2 (OC pre-incubated with 10 mM Ca^++) is “activates CaR2 when pre-incubated with 10 mM Ca^++ in a dose-dependent manner”. For the same compound, the “effect of OC on CaR2 activation by calcium” value in the test with CaR2 (in the presence of osteocalcin) was “activated at lower calcium levels and the activation by high mM calcium was potentiated”. Moreover, in the test with CaR2 (pre-incubated versus both ligands added separately), the “synergistic effect of Ca^++ and osteocalcin on CaR2, dependence on pre-incubation” value is given as “only witnessed when calcium is pre-incubated with OC, but not when both ligands are added separately”. In addition, the “synergistic effect of Ca^++ and osteocalcin” value with CaR (OC and Ca^++ added to HEK293 cells that express CaR) was “not observed”; with parental HEK293 cells (OC and Ca^++ added to parental HEK293 cells), “not observed”.
